In US10968225B2, “Compounds and compositions for the treatment of cystic fibrosis” (Fondazione Istituto Italiano Di Tecnologia, priority 2017, dated 2021):
Where a name gives a salt, the structure may show the parent alone.

biological target: T1, mutant CFTR (Homo sapiens, UniProt P13569, DEL508-508); assay: Fluorescence (HS-YFP) assay for CFTR activity, corrector assay; type: cell-based; settings: CFBE41o- and FRT cells with stable expression of mutant CFTR, read-out: activity (EC50)
T1 construct: expressed in transfected cells
T1 sequence (P13569 with tags, fused parts or gaps DEL508-508): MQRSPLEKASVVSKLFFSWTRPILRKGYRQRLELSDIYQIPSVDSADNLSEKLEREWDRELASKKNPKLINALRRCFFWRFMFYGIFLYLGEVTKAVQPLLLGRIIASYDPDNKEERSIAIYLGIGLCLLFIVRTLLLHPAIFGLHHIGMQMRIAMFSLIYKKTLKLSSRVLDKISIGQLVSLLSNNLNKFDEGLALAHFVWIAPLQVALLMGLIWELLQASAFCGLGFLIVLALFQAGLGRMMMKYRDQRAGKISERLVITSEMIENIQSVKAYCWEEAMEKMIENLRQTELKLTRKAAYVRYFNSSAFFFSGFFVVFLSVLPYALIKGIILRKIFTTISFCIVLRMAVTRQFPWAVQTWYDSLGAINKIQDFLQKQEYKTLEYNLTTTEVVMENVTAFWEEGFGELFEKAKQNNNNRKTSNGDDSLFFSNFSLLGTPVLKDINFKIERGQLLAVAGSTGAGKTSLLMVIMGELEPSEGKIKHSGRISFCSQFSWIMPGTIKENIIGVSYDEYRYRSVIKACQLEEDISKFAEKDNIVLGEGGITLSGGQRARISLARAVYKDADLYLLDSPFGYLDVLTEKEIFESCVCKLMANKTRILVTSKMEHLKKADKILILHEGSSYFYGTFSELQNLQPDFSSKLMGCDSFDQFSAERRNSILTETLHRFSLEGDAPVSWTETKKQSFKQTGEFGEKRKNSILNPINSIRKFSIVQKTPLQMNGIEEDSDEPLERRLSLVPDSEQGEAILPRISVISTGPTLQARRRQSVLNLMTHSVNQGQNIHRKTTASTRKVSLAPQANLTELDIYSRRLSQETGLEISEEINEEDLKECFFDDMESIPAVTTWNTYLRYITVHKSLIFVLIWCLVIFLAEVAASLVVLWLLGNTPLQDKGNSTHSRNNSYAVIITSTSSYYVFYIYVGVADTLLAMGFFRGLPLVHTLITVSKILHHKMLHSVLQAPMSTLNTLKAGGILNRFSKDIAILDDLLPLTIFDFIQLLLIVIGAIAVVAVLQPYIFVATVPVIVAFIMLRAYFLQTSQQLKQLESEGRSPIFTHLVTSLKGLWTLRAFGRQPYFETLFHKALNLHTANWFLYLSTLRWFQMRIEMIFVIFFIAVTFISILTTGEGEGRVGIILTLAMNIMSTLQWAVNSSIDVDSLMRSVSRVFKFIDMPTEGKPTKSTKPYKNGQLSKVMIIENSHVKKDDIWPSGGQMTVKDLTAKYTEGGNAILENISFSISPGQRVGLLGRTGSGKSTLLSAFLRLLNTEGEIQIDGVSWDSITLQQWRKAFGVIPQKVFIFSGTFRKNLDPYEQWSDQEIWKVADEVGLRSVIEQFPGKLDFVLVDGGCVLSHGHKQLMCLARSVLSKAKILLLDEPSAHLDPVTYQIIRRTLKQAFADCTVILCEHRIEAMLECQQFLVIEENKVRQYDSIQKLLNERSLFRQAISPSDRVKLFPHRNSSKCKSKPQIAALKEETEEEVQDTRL

SMILES	EC50 [nM]
Cc1nc2cc(F)c(N(C)C(=O)c3cccc(-n4nc(C(F)(F)F)c5c4CCN(C(=O)OC(C)(C)C)C5)c3)cc2o1 [Compound 036, tert-Butyl 1-[3-[(5-fluoro-2-methyl-1,3-benzoxazol-6-yl)-methylcarbamoyl]phenyl]-3-(trifluoromethyl)-6,7-dihydro-4H-pyrazolo[4,3-c]pyridine-5-carboxylate]	< 1000
Cc1nc2cc(F)c(NC(=O)c3cccc(-n4nc(C(F)(F)F)c5c4CCN(C(=O)OC(C)(C)C)C5)c3)cc2o1 [Compound 037, tert-Butyl 1-[3-[(5-fluoro-2-methyl-1,3-benzoxazol-6-yl)carbamoyl]phenyl]-3-(trifluoromethyl)-6,7-dihydro-4H-pyrazolo[4,3-c]pyridine-5-carboxylate]	> 2000
CN(C(=O)c1cccc(-n2nc(C(F)(F)F)c3c2CNCC3)c1)c1ccc2c(c1)OCO2 [Compound 038, N-(1,3-Benzodioxol-5-yl)-N-methyl-3-[3-(trifluoromethyl)-4,5,6,7-tetrahydropyrazolo[3,4-c]pyridin-1-yl] benzamide hydrochloride]	< 1000
Cc1nc2ccc(N(C)C(=O)c3cccc(-n4nc(C(F)(F)F)c5c4CCN(C(=O)OC(C)(C)C)C5)c3)cc2o1 [Compound 039, tert-Butyl 1-[3-[methyl-(2-methyl-1,3-benzoxazol-6-yl)carbamoyl]phenyl]-3-(trifluoromethyl)-6,7-dihydro-4H-pyrazolo[4,3-c]pyridine-5-carboxylate]	< 1000
Cc1nc2ccc(N(C)C(=O)c3cccc(-n4nc(C(F)(F)F)c5c4CCN(C)C5)c3)cc2o1 [Compound 040, N-Methyl-N-(2-methyl-1,3-benzoxazol-6-yl)-3-[5-methyl-3-(trifluoromethyl)-6,7-dihydro-4H-pyrazolo[4,3-c]pyridin-1-yl]benzamide]	< 1000
CC(=O)Nc1ccc(N(C)C(=O)c2cccc(-n3nc(C(F)(F)F)c4c3CCN(C)C4)c2)cc1O [Compound 041, N-(4-Acetamido-3-hydroxy-phenyl)-N-methyl-3-[5-methyl-3-(trifluoromethyl)-6,7-dihydro-4H-pyrazolo[4,3-c]pyridin-1-yl]benzamide]	> 2000
COC(=O)c1ccc(C(=O)N2CCc3c(c(C(F)(F)F)nn3-c3cccc(C(=O)N(C)c4ccc5c(c4)OCO5)c3)C2)cc1 [Compound 042, Methyl 4-[1-[3-[1,3-benzodioxol-5-yl(methyl)carbamoyl]phenyl]-3-(trifluoromethyl)-6,7-dihydro-4H-pyrazolo[4,3-c]pyridine-5-carbonyl]benzoate]	< 1000
CN(C(=O)c1cccc(-n2nc(C(F)(F)F)c3c2CCN(C(=O)c2ccc(C(=O)O)cc2)C3)c1)c1ccc2c(c1)OCO2 [Compound 044, 4-[1-[3-[1,3-Benzodioxol-5-yl(methyl)carbamoyl]phenyl]-3-(trifluoromethyl)-6,7-dihydro-4H-pyrazolo[4,3-c]pyridine-5-carbonyl]benzoic acid]	> 2000
Cc1nc2cc(F)c(N(C)C(=O)c3cccc(-n4nc(C(F)(F)F)c5c4CCN(C)C5)c3)cc2o1 [Compound 046, N-(5-Fluoro-2-methyl-1,3-benzoxazol-6-yl)-N-methyl-3-[5-methyl-3-(trifluoromethyl)-6,7-dihydro-4H-pyrazolo[4,3-c]pyridin-1-yl]benzamide]	< 1000
Cc1nc2cc(F)c(NC(=O)c3cccc(-n4nc(C(F)(F)F)c5c4CCN(C)C5)c3)cc2o1 [Compound 047, N-(5-Fluoro-2-methyl-1,3-benzoxazol-6-yl)-3-[5-methyl-3-(trifluoromethyl)-6,7-dihydro-4H-pyrazolo[4,3-c]pyridin-1-yl]benzamide]	> 2000
CN(C(=O)c1cccc(-n2nc(C(F)(F)F)c3c2CCOC3)c1)c1ccc2c(c1)OCO2 [Compound 054, N-(1,3-Benzodioxol-5-yl)-N-methyl-3-[3-(trifluoromethyl)-6,7-dihydro-4H-pyrano[4,3-c]pyrazol-1-yl]benzamide]	< 1000
COC(=O)c1ccc(S(=O)(=O)N2CCc3c(c(C(F)(F)F)nn3-c3cccc(C(=O)N(C)c4ccc5c(c4)OCO5)c3)C2)cc1 [Compound 055, Methyl 4-[[1-[3-[1,3-benzodioxol-5-yl(methyl)carbamoyl]phenyl]-3-(trifluoromethyl)-6,7-dihydro-4H-pyrazolo[4,3-c]pyridin-5-yl]sulfonyl]benzoate]	< 1000
CNC(=O)N1CCc2c(c(C(F)(F)F)nn2-c2cccc(C(=O)N(C)c3ccc4c(c3)OCO4)c2)C1 [Compound 056, 1-[3-[1,3-Benzodioxol-5-yl(methyl)carbamoyl]phenyl]-N-methyl-3-(trifluoromethyl)-6,7-dihydro-4H-pyrazolo[4,3-c] pyridine-5-carboxamide]	< 1000
CN(C(=O)c1cccc(-n2nc(C(F)(F)F)c3c2CCN(S(=O)(=O)c2ccc(C(=O)O)cc2)C3)c1)c1ccc2c(c1)OCO2 [Compound 057, 4-[[1-[3-[1,3-Benzodioxol-5-yl(methyl)carbamoyl]phenyl]-3-(trifluoromethyl)-6,7-dihydro-4H-pyrazolo[4,3-c]pyridin-5-yl]sulfonyl]benzoic acid]	1000 to 2000
CN(C(=O)c1cccc(-n2nc(C(F)(F)F)c3c2CCN(C(=O)C(C)(C)O)C3)c1)c1ccc2c(c1)OCO2 [Compound 058, N-(1,3-Benzodioxol-5-yl)-3-[5-(2-hydroxy-2-methyl-propanoyl)-3-(trifluoromethyl)-6,7-dihydro-4H-pyrazolo[4,3-c]pyridin-1-yl]-N-methyl-benzamide]	< 1000
COC(=O)c1cccc(S(=O)(=O)N2CCc3c(c(C(F)(F)F)nn3-c3cccc(C(=O)N(C)c4ccc5c(c4)OCO5)c3)C2)c1 [Compound 059, Methyl 3-[[1-[3-[1,3-benzodioxol-5-yl(methyl)carbamoyl]phenyl]-3-(trifluoromethyl)-6,7-dihydro-4H-pyrazolo[4,3-c]pyridin-5-yl]sulfonyl]benzoate]	< 1000
COC(=O)c1ccccc1S(=O)(=O)N1CCc2c(c(C(F)(F)F)nn2-c2cccc(C(=O)N(C)c3ccc4c(c3)OCO4)c2)C1 [Compound 060, Methyl 2-[[1-[3-[1,3-benzodioxol-5-yl(methyl)carbamoyl]phenyl]-3-(trifluoromethyl)-6,7-dihydro-4H-pyrazolo[4,3-c]pyridin-5-yl]sulfonyl]benzoate]	< 1000
CN(C(=O)c1cccc(-n2nc(C(F)(F)F)c3c2CCN(S(=O)(=O)c2cccc(C(=O)O)c2)C3)c1)c1ccc2c(c1)OCO2 [Compound 061, 3-[[1-[3-[1,3-Benzodioxol-5-yl(methyl)carbamoyl]phenyl]-3-(trifluoromethyl)-6,7-dihydro-4H-pyrazolo[4,3-c]pyridin-5-yl]sulfonyl]benzoic acid]	> 2000
CN(C(=O)c1cccc(-n2nc(C(F)(F)F)c3c2CCN(S(=O)(=O)c2ccccc2C(=O)O)C3)c1)c1ccc2c(c1)OCO2 [Compound 062, 2-[[1-[3-[1,3-Benzodioxol-5-yl(methyl)carbamoyl]phenyl]-3-(trifluoromethyl)-6,7-dihydro-4H-pyrazolo[4,3-c]pyridin-5-yl]sulfonyl]benzoic acid]	> 2000
CN(C(=O)c1cccc(-n2nc(C(F)(F)F)c3c2CCN(S(=O)(=O)c2ccc(C#N)cc2)C3)c1)c1ccc2c(c1)OCO2 [Compound 063, N-(1,3-Benzodioxol-5-yl)-3-[5-(4-cyanophenyl)sulfonyl-3-(trifluoromethyl)-6,7-dihydro-4H-pyrazolo[4,3-c]pyridin-1-yl]-N-methyl-benzamide]	< 1000
Cc1nc(S(=O)(=O)N2CCc3c(c(C(F)(F)F)nn3-c3cccc(C(=O)N(C)c4ccc5c(c4)OCO5)c3)C2)cn1C [Compound 064, N-(1,3-Benzodioxol-5-yl)-3-[5-(1,2-dimethylimidazol-4-yl)sulfonyl-3-(trifluoromethyl)-6,7-dihydro-4H-pyrazolo[4,3-c]pyridin-1-yl]-N-methyl-benzamide]	< 1000
CN(c1ccc2c(c1)OCO2)S(=O)(=O)c1cccc(-n2nc(C(F)(F)F)c3c2CCN(C(=O)OC(C)(C)C)C3)c1 [Compound 065, tert-Butyl 1-[3-[1,3-benzodioxol-5-yl(methyl)sulfamoyl]phenyl]-3-(trifluoromethyl)-6,7-dihydro-4H-pyrazolo[4,3-c]pyridine-5-carboxylate]	> 2000
CN(c1ccc2c(c1)OCO2)S(=O)(=O)c1cccc(-n2nc(C(F)(F)F)c3c2CCNC3)c1 [Compound 066, N-(1,3-Benzodioxol-5-yl)-N-methyl-3-[3-(trifluoromethyl)-4,5,6,7-tetrahydropyrazolo[4,3-c]pyridin-1-yl] benzenesulfonamide hydrochloride]	< 1000
Cc1noc(C)c1S(=O)(=O)N1CCc2c(c(C(F)(F)F)nn2-c2cccc(C(=O)N(C)c3ccc4c(c3)OCO4)c2)C1 [Compound 067, N-(1,3-benzodioxol-5-yl)-3-[5-(3,5-dimethylisoxazol-4-yl)sulfonyl-3-(trifluoromethyl)-6,7-dihydro-4H-pyrazolo[4,3-c]pyridin-1-yl]-N-methyl-benzamide]	< 1000
COCCS(=O)(=O)N1CCc2c(c(C(F)(F)F)nn2-c2cccc(C(=O)N(C)c3ccc4c(c3)OCO4)c2)C1 [Compound 068, N-(1,3-benzodioxol-5-yl)-3-[5-(2-methoxyethylsulfonyl)-3-(trifluoromethyl)-6,7-dihydro-4H-pyrazolo[4,3-c]pyridin-1-yl]-N-methyl-benzamide]	< 1000
Cc1n[nH]c(C)c1S(=O)(=O)N1CCc2c(c(C(F)(F)F)nn2-c2cccc(C(=O)N(C)c3ccc4c(c3)OCO4)c2)C1 [Compound 069, N-(1,3-Benzodioxol-5-yl)-3-[5-[(3,5-dimethyl-4H-pyrazol-4-yl)sulfonyl]-3-(trifluoromethyl)-6,7-dihydro-4H-pyrazolo[4,3-c]pyridin-1-yl]-N-methyl-benzamide]	< 1000
COC(=O)c1ccc(S(=O)(=O)N2C3CCC2c2c(C(F)(F)F)nn(-c4cccc(C(=O)N(C)c5ccc6c(c5)OCO6)c4)c2C3)cc1 (stereo not drawn) [Compound 070, Methyl 4-((1-(3-(benzo[d][1,3]dioxol-5-yl(methyl)carbamoyl)phenyl)-3-(trifluoromethyl)-1,4,5,6,7,8-hexahydro-4,7-epiminocyclohepta[c]pyrazol-9-yl)sulfonyl)benzoate]	< 1000
